From US8133886B2, “Heterobicyclic carboxamides as inhibitors for kinases” (Novartis AG, priority 2006, dated 2012)

In the case of `O=C(Nc1ccc(Cl)c(C(F)(F)F)c1)N1COc2cc(Oc3ccnc(Cl)n3)ccc21` [Example 1, 6-(2-Chloro-pyrimidin-4-yloxy)-benzooxazole-3-carboxylic acid (4-chloro-3-trifluoromethyl-phenyl)-amide], the melting point is reported as 140 to 142 °C. In the case of `CS(=O)(=O)Nc1nccc(Oc2ccc3c(C(=O)Nc4ccc(F)c(C(F)(F)F)c4)cccc3c2)n1` [Example 13, 6-(2-Methanesulfonylamino-pyrimidin-4-yloxy)-naphthalene-1-carboxylic acid (4-fluoro-3-trifluoromethyl-Phenyl)-amide], the melting point is reported as 246 °C. Work on `CC(C)(C)c1ccc(NC(=O)c2cccc3cc(Oc4cc(CO)ncn4)ccc23)cc1` [Example 18A, 6-(6-Hydroxymethyl-pyrimidin-4-yloxy)-naphthalene-1-carboxylic acid (4-tert-butyl-phenyl)-amide] yielded a melting point of 202 to 203 °C. In the case of `COCc1cc(Oc2ccc3c(C(=O)Nc4ccc(C)c(C(F)(F)F)c4)cccc3c2)ncn1` [Example 18C, 6-(6-Methoxymethyl-pyrimidin-4-yloxy)-naphthalene-1-carboxylic acid (4-methyl-3-trifluoromethyl-phenyl)-amide], the melting point is reported as 188 °C. In the case of `CCOC(=O)c1cc(Oc2ccc3c(C(=O)Nc4ccc(C(C)(C)C)cc4)cccc3c2)ncn1` [Example 18], the melting point is reported as 177 to 178 °C. In the case of `COc1ccc(-n2nc(C(C)(C)C)cc2NC(=O)c2cccc3cc(Oc4cc(NCCN(C)C)ncn4)ccc23)cc1` [Example 19, 6-[6-(2-Dimethylamino-ethylamino)-pyrimidin-4-yloxy]-naphtalene-1-carboxylic acid [5-tert-butyl-2-(4-methoxy-phenyl)-2H-pyrazol-3-yl]-amide], the melting point is reported as 116 to 117 °C.
